Measurements: patent publication US5753671A, “Imidazopyridine derivatives as dual histamine (H1) and platelet activating factor (PAF) antagonists” (British Biotech Pharmaceuticals Limited, priority 1994, dated 1998)
pIC50: −log10 of the molar value.

Legend:
[1] = test system: Histamine Induced Bronchoconstriction; experiment: Histamine Induced Bronchoconstriction in the Anaesthetised Guinea Pig; type: in vivo, guinea pig (male Dunkin-Hartley); details: Cavia porcellus, 1 h, p.o., histamine infusion 10 μgkg^-1 min^-1 started one hour after oral dosing
Text: Histamine Induced Bronchoconstriction in the Anaesthetised Guinea Pig
(§1) Following oral administration of test compound or vehicle by oral gavage, male Dunkin-Hartley guinea pigs (350-400 g) were anaesthetised by intraperitoneal injection of 60 mgkg^-1 sodium pentobarbitone (Sagatal, May & Baker UK). Through a midline incision of the neck, the trachea was cannulated and connected to a small animal respirator (Harvard, UK). Animals were artificially ventilated at a rate of 30 breaths per minute with a tidal volume of 8-10 ml to give a resting tracheal inflation pressure of 15 mmHg as measured by a physiological pressure transducer (type P23XL, Spectramed USA) connected to a side arm of the respiratory circuit.
A jugular vein was cannulated for the administration of propranolol and for the infusion of histamine. A carotid artery was cannulated for the measurement of arterial blood pressure via a physiological pressure transducer (type P23XL, Spectramed USA). Blood pressure and tracheal inflation pressure were recorded on a thermal array chart recorder (type TA4000, Gould Electronics UK).
Following a suitable equilibration period, propranolol (1 mgkg^-1 i.v. & 3 mgkg ^-1 s.c. Sigma Chemical Co. UK) was administered to inhibit any resulting catecholamine release following histamine administration.
Histamine infusion (10 μgkg^-1 min^-1 at a rate of 10 mlhr^-1 using a perfusion pump type Perfuser securer FT, B. Braun Germany) was started at the one hour time point following oral administration of the test compound or vehicle. Changes in tracheal inflation pressure and blood pressure of drug treated animals were compared with changes from vehicle treated animals and ED50 values determined. One dose of test compound was investigated per animal.

[2] = test system: PAF Induced Bronchoconstriction; experiment: PAF Induced Bronchoconstriction in the Anaesthetised Guinea Pig; type: in vivo, guinea pig (male Dunkin-Hartley); details: 10 mgkg^-1, p.o., PAF 100 ngkg^-1 i.v. bolus one hour after oral dosing
Text: PAF Induced Bronchoconstriction in the Anaesthetised Guinea Pig
as §1, with “vehicle,” for “vehicle by oral gavage,”, “15mmHg” for “15 mmHg”
A jugular vein was cannulated for the administration of a bolus dose of propranolol and for the later administration of bolus PAF. A carotid artery cannulated for the measurement of arterial blood pressure via a physiological pressure transducer (type P23XL, Spectramed USA). Blood pressure and tracheal inflation pressure were recorded on a thermal array chart recorder (type TA4000, Gould Electronics UK).
Propranolol (1 mgkg^-1 i.v. & 3 mgkg^-1 s.c. Sigma Chemical Co. UK) was administered 10 minutes before PAF in order to prevent the bronchodilatory activity of catecholamines which may be released in response to PAF administration. PAF (100 ngkg^-1 i.v. bolus) was administered at the one hour time point following oral administration of the test compound or vehicle.
Changes in tracheal inflation pressure and blood pressure of drug treated animals were compared with changes from vehicle treated animals and percentage inhibition determined. One dose of test compound was investigated per animal.

[3] = molecular target: T1, Histamine-1 Receptors on Hela-S3 Cells (Homo sapiens, UniProt P35367); experiment: Inhibition of [^3 H]-Pyrilamine Binding to Histamine-1 Receptors on Hela-S3 Cells; details: 0.5 h, 1 μM test compound, 37° C., 30 minutes, read-out: % Specific Binding
T1 construct: histamine-1 receptors on Hela-S3 cells (American Type Culture Collection); endogenous in cells; host or cells: HeLa S3 cells (American Type Culture Collection), intact cell suspension
Experimental: Inhibition of [^3 H]-Pyrilamine Binding to Histamine-1 Receptors on Hela-S3 Cells
The inhibition of [^3 H]-pyrilamine binding to histamine-1 receptors on Hela-S3 cells (American Type Culture Collection) was determined by isotopic labelling and filtration techniques. A suspension of the cells in buffer (25 ml, 0.5% Bovine Serum Albumin, 0.1% sodium azide, phosphate buffered saline (PBS)) was centrifuged at 1000 rpm for 5 minutes in a JOUAN CR 422 centrifuge, collected, resuspended in buffer (25 ml) and spun again. The cells were counted using a haemocytometer and resuspended in buffer to provide a final concentration of 4.5×10^6 cells ml^-1. A portion of the Hela S3 cell suspension (1 ml) was added to each assay tube containing 25 μl of vehicle (50% DMSO/buffer) or 25 μl of solution containing test compound (dissolved in DMSO and diluted with sufficient PBS to give a final test concentration of 1 μM) and 25 μl 0f [^3 H]-pyrilamine (supplied by Amersham International and diluted with PBS to 3 nM). The tubes were mixed and incubated at 37° C. for 30 minutes. The tubes were then spun at 4° C. at 2000 rpm for 2 minutes. The supematant was removed and the cells resuspended in buffer (repeated x2). The cells were suspended in 300 μl of a 2:1 solution of 1M sodium hydroxide and 1% sodium dodecyl sulphate. The tubes were left overnight before the contents were tranferred to a scintillation vial, treated with 10 ml, OPTIPHASE MP scintillation fluid (OPTIPHASE MP is a trade mark) and the radioactivity counted in a scintillation counter. Non-displcable binding (NDB) was determined using Astemizole (5×10^-5 M) in place of test compounds. Defining the counts for total binding from the vehicle control sample as "TB" and the counts for total binding with antagonist as "TBA" the percentage specific binding (%SB) can be determined from the following equation. [formula] Results

[4] = test system: PAF-Induced Platelet Aggregation; experiment: Inhibition of PAF-Induced Platelet Aggregation; type: cell-based, rabbit (male New Zealand White); details: Oryctolagus cuniculus; rabbit platelet-rich plasma, PAF 100 ng.ml^-1 (50 μl aliquot), 37° C.
Experimental: Inhibition of PAF-Induced Platelet Aggregation
Male New Zealand White rabbits (3.0-3.5 kg) were anaesthetised by intravenous administration of sodium pentobarbitone, […], via a marginal ear vein. The trachea was exposed and connected to a respiratory pump (Havard UK) to provide artificial ventilation. A carotid artery was exposed and cannulated and the animal was exsanguinated. Whole blood was collected in a syringe containing tri-sodium citrate (3.8% w/v) to a ratio of 1 part citrate:9 parts blood.
Collected blood was centrifuged at 180×g for 15 minutes at room temperature (21° C.) to prepare platelet-rich plasma (PRP). The remaining blood was then centrifuged at 1800×g for 10 minutes at room temperature to obtain platelet poor plasma (PPP).
Platelet count of the PRP was measured using a Technicon H1 blood cell differential analyser (Bayer Diagnostics UK) and adjusted with PPP to obtain a final platelet count of 500,000 platelets per μl of plasma, this being the normal physiological platelet count for rabbits. Corrected PRP was left to equilibrate at room temperature for 30 minutes before use.
Aggregation studies were carried out using 4-channel aggregometer (PAP-4C, BioData USA) as follows: 400 μl aliquots of PRP were placed in siliconised cuvettes and incubated to 37° C. for 1 to 2 minutes in the heating block of the aggregometer. Baseline (100% aggregation) was set up using PPP (500 μl in a siliconised cuvette). The PRP was placed into a measuring well of the aggregometer, and a stir bar was added. The sample was stirred at 1000 rpm. The machine was activated to set the 0% aggregation level. Test compound or vehicle (50 μl) was added to the PRP, where any effects on the baseline was noted. PAF (100 ng.ml^-1 as 50 μl aliqout) was added to the PRP 3 minutes after test compound or vehicle. Aggregation was measured for a further 4 minutes after PAF addition and the maximum aggregation over the 4 minutes was recorded.
The investigation of different concentrations of test compound was performed in triplicate. Data were expressed as […] of the sample and test compound data were compared to vehicle data to obtain % inhibition of the PAF-induced aggregation from which IC50 values could be determined.
PAF was made up in sterile saline (NaCl 0.9% w/v) containing BSA (0.25% w/v) from an initial stock solution (10 mg.ml^-1 in EtOH). Test compounds were made up as 1×10^-3 M stock solutions in sterile saline containing molar equivalents of 1N HCI (v/v) or in DMSO.

T1 sequence (P35367 whole entry): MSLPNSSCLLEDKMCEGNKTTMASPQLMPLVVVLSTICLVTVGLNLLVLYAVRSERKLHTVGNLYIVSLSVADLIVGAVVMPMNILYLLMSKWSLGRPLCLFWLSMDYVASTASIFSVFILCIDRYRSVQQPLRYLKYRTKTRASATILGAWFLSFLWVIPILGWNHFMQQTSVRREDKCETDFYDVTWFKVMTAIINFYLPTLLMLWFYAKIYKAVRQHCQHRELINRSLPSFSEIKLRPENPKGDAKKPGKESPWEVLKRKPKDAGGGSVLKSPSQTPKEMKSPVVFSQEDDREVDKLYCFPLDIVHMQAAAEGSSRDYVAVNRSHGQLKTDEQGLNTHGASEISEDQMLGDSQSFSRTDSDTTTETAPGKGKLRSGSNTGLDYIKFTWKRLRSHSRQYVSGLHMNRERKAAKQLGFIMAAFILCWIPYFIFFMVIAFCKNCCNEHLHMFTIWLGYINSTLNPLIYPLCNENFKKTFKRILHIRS

SMILES: CCOC[C@H](CC(C)C)N(C/C=C/c1cccc(/C(=C/CN2CCCC2)c2ccc(C)cc2)n1)S(=O)(=O)c1ccc(Cn2c(C)nc3cnccc32)cc1 [Example 25, N-(S)-(1-Ethoxymethyl-3-methylbutyl)-N-{(E)-3-(6-[3-pyrrolidino-1-{4-tolyl}-prop-1E-enyl]-pyridin-2-yl)-prop-2-en-1-yl}-4-(1H-2-methylimidazo[4,5-c]pyridin-1-ylmethyl)-phenylsulphonamide]
- ED50 [1]: 0.5 mg/kg
- % Inhibition [2]: 50%
- activity at 1 µM [3]: 55%
- pIC50 [4]: 6.38

SMILES: Cc1ccc(/C(=C\CN2CCCC2)c2cccc(/C=C/COC(=O)[C@H](CC(C)C)N(C)S(=O)(=O)c3ccc(Cn4c(C)nc5cnccc54)cc3)n2)cc1 [Example 17, 4-Methyl-2-{methyl-[4-(2-methyl-imidazo[4,5-c]pyridin-1-ylmethyl)-phenylsulphonyl]-amino}-pentanoic acid-(E)-3-(6-[3-pyrrolidino-1-{4-tolyl}-prop-1E-enyl]-pyridin-2-yl)-prop-2-en-1-yl ester]
- activity at 1 µM [3]: 47%
- pIC50 [4]: 6.94

SMILES: Cc1ccc(/C(=C\CN2CCCC2)c2cccc(/C=C/C(=O)OC[C@H](CC(C)C)N(C)S(=O)(=O)c3ccc(Cn4c(C)nc5cnccc54)cc3)n2)cc1 [Example 8, (E)-3-(6-[Pyrrolidino-1-{4-tolyl}prop-1E-enyl]-2-pyridyl)acrylic acid, N-methyl-N-4-(1H-2-methylimidazo[4,5-c]pyridinylmethyl)-phenylsulphonyl-L-leucyl ester]
- ED50 [1]: 0.16 mg/kg
- % Inhibition [2]: 46%

SMILES: Cc1nc2cnccc2n1Cc1ccc(S(=O)(=O)N(C)[C@@H](CC(C)C)C(=O)OCCCN2CCN(C(c3ccccc3)c3ccccc3)CC2)cc1 [Example 4, N-Methyl-N-4-(1H-2-methylimidazo[4,5-c]pyridinylmethyl)-phenylsulphonyl-L-leucine-3-(4-benzhydryl-piperazin-1-yl)-propyl ester]
- activity at 1 µM [3]: 34%
- pIC50 [4]: 6.72

SMILES: Cc1nc2cnccc2n1Cc1ccc(S(=O)(=O)N(C)[C@@H](CC(C)C)C(=O)OC(CCCN2CCC(C(O)(c3ccccc3)c3ccccc3)CC2)c2ccc(C(C)(C)C)cc2)cc1 (stereo partly drawn) [Example 2, N-Methyl-N-4-(1H-2-methylimidazo[4,5-c]pyridinylmethyl)-phenylsulphonyl-L-leucine-2-(4-[1,1-dimethylethyl]phenyl)-4-(hydroxydiphenylmethyl)-1-piperidinebutyl ester]
- activity at 1 µM [3]: 57%
- pIC50 [4]: 5.68

SMILES: CCOC[C@H](CC(C)C)N(CCCN(C)CCC(c1ccc(Cl)cc1)c1ccccn1)S(=O)(=O)c1ccc(Cn2c(C)nc3cnccc32)cc1 (stereo partly drawn) [Example 23, N-(3-{[3-(R,S)-(4-Chlorophenyl)-3-pyridin-2-yl-propyl]-methylamino}propyl)-N-(S)-(1-ethoxymethyl-3-methylbutyl)-4-(1H-2-methylimidazo[4,5-c]pyridin-1-ylmethyl)-phenylsulphonamide]
- activity at 1 µM [3]: 33%
- pIC50 [4]: 6.52

SMILES: Cc1nc2cnccc2n1Cc1ccc(S(=O)(=O)N(C)[C@@H](CC(C)C)C(=O)N2CCC(=C3c4ccc(Cl)cc4CCc4cccnc43)CC2)cc1 [Example 6, 4-(8-Chloro-5,6-dihydro-11H-benzo[5,6]cyclohepta[1.2-b]-pyridin-11-ylidene)-1-(N-methyl-N-4-{1H-2-methylimidazo[4,5-c]pyridinylmethyl}-phenylsulphonyl-L-leucyl)-piperidine amide]
- ED50 [1]: 6.5 mg/kg
- % Inhibition [2]: 40%
- activity at 1 µM [3]: 79%
- pIC50 [4]: 6.60
